Experimental data as given in ChEMBL document CHEMBL1141240, “N-8-Substituted benztropinamine analogs as selective dopamine transporter ligands” (Bioorg Med Chem Lett, 2005).

Legend:
[1] = target: Sodium-dependent serotonin transporter (Homo sapiens, UniProt P31645); test: Displacement of [3H]citalopram from SERT
[2] = target: Sodium-dependent noradrenaline transporter (Homo sapiens, UniProt P23975); test: Displacement of [3H]nisoxetine from NET
[3] = target: T1, Muscarinic acetylcholine receptor M1 (Homo sapiens, UniProt P11229); test: Displacement of [3H]pirenzepine from Muscarinic receptor M1
T1 sequence (P11229 whole entry): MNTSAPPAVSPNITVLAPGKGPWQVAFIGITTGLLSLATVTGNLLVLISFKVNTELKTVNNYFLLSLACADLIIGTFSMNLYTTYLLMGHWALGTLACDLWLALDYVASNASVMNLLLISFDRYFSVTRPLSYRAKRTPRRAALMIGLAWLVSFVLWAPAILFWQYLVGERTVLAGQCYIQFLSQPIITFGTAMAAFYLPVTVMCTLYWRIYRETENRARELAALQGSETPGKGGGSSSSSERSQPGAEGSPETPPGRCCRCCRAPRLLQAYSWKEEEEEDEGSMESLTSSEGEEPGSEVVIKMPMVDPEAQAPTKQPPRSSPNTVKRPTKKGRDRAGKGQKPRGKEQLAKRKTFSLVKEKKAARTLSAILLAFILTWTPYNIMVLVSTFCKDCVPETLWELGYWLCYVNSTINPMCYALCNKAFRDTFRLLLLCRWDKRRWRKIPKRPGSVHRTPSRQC

[4] = Selectivity of SERT over DAT
[5] = Selectivity of NET over DAT
[6] = Selectivity of Muscarinic receptor M1 over DAT
[7] = target: Sodium-dependent dopamine transporter (Rattus norvegicus, UniProt P23977); test: Displacement of [3H]WIN-from DAT in rat brain membrane; format: cell membranes
Sequence of Sodium-dependent dopamine transporter (P23977 whole entry): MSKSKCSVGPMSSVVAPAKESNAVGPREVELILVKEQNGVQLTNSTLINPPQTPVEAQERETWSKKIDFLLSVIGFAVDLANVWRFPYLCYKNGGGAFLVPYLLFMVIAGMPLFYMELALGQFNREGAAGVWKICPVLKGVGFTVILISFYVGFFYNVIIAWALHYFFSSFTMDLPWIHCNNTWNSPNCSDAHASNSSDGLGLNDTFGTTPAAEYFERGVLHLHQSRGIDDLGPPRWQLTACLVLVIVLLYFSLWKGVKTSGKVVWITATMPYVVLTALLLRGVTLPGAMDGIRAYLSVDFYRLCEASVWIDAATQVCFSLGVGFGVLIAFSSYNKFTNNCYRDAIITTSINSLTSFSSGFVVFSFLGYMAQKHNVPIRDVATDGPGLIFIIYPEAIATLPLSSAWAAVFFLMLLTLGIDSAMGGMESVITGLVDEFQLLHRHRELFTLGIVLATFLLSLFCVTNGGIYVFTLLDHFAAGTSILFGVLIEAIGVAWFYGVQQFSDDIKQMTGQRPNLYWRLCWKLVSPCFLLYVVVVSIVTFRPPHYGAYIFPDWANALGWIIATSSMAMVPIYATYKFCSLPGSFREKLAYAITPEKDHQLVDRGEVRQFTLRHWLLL

Sequence of Sodium-dependent serotonin transporter (P31645 whole entry): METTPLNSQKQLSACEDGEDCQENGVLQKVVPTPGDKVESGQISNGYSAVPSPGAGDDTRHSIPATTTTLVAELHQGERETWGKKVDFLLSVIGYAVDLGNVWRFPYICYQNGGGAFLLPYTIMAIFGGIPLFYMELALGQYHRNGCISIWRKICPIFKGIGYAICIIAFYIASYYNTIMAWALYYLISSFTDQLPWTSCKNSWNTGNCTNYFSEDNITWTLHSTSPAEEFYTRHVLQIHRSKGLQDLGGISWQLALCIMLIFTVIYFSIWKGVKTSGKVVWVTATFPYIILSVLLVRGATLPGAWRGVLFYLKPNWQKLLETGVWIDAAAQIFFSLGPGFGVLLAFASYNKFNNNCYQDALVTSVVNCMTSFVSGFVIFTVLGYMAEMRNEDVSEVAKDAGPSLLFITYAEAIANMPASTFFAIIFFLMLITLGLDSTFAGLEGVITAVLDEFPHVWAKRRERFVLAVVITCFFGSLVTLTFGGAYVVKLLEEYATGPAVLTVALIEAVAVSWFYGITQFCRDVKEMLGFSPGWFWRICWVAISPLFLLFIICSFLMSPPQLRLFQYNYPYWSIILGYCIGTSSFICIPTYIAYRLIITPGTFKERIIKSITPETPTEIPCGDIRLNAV
Sequence of Sodium-dependent noradrenaline transporter (P23975 whole entry): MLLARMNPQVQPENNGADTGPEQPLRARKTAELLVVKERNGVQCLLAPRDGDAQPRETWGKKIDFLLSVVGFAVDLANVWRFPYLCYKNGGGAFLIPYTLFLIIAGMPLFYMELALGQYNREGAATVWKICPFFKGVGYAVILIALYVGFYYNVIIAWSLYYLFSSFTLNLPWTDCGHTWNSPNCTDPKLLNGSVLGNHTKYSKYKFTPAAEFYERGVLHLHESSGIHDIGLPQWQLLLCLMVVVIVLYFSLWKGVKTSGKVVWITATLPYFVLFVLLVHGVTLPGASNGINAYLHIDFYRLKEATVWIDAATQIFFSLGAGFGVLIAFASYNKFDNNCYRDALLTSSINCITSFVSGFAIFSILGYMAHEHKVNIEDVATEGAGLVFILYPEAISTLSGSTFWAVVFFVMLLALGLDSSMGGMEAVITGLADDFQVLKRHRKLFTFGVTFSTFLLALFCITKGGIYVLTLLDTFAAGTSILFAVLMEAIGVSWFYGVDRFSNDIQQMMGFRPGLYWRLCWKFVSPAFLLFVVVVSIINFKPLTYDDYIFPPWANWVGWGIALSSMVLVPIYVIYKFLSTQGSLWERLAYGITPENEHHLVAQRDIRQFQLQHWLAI

| SMILES | Ki [1] [nM] | Ki [2] [nM] | Ki [3] [nM] | Ratio Ki [4] | Ratio Ki [5] | Ratio Ki [6] | Ki [7] [nM] |
| --- | --- | --- | --- | --- | --- | --- | --- |
| CN1[C@@H]2CC[C@H]1C[C@H](NC(c1ccc(F)cc1)c1ccc(F)cc1)C2 | 48500 | 152000 | 59.4 | 73 | 230 | 0.1 | – |
| CN1[C@@H]2CC[C@H]1C[C@@H](NC(c1ccc(Cl)c(Cl)c1)c1ccc(Cl)c(Cl)c1)C2 | 3010 | 259 | 17.8 | 563 | 48 | 3 | – |
| O=C(CCN1[C@@H]2CC[C@H]1C[C@@H](NC(c1ccc(F)cc1)c1ccc(F)cc1)C2)Nc1ccccc1 | 608 | 2470 | 2540 | 132 | 536 | 551 | – |
| CN1[C@@H]2CC[C@H]1C[C@@H](NC(c1ccccc1)c1ccc(Cl)cc1)C2 (stereo partly specified) | 13600 | 3170 | 9.3 | 373 | 87 | 0.3 | – |
| Fc1ccc(C(N[C@H]2C[C@H]3CC[C@@H](C2)N3CCc2c[nH]c3ccccc23)c2ccc(F)cc2)cc1 | 347 | 8250 | 413 | – | – | – | – |
| Fc1ccc(C(O[C@H]2C[C@H]3CC[C@@H](C2)N3CCc2c[nH]c3ccccc23)c2ccc(F)cc2)cc1 | – | – | – | – | – | – | 29.2 |
| Fc1ccc(C(N[C@H]2C[C@H]3CC[C@@H](C2)N3)c2ccc(F)cc2)cc1 | 4150 | 997 | 154 | 491 | 118 | 18 | – |
| CN1[C@@H]2CC[C@H]1C[C@@H](NC(c1ccc(Cl)cc1)c1ccc(Cl)cc1)C2 | 4180 | 7580 | 50 | – | – | – | – |
| C=CCN1[C@@H]2CC[C@H]1C[C@@H](NC(c1ccc(F)cc1)c1ccc(F)cc1)C2 | 3920 | 5580 | 130 | 146 | 208 | 5 | – |
| CCCCN1[C@@H]2CC[C@H]1C[C@@H](NC(c1ccc(F)cc1)c1ccc(F)cc1)C2 | 2640 | 2920 | 454 | 123 | 136 | 21 | – |
| CN1C2CCC1CC(OC(c1ccc(F)cc1)c1ccc(F)cc1)C2 (stereo unspecified) [DIFLUOROBENZTROPINE] | 3260 | 844 | 11.6 | – | – | – | – |
| O=C(CCN1[C@@H]2CC[C@H]1C[C@@H](OC(c1ccc(F)cc1)c1ccc(F)cc1)C2)Nc1ccccc1 | – | – | – | – | – | – | 6.22 |
| CN(C(c1ccc(F)cc1)c1ccc(F)cc1)[C@H]1C[C@H]2CC[C@@H](C1)N2C | 17200 | 8410 | 18.6 | 140 | 68 | 0.2 | – |
| NCCN1[C@@H]2CC[C@H]1C[C@@H](NC(c1ccc(F)cc1)c1ccc(F)cc1)C2 | 10900 | 3550 | 2110 | – | – | 169 | – |
| NCCN1[C@@H]2CC[C@H]1C[C@@H](OC(c1ccc(F)cc1)c1ccc(F)cc1)C2 | – | – | – | – | – | – | 5.59 |
| Fc1ccc(C(N[C@H]2C[C@H]3CC[C@@H](C2)N3CCCCc2ccccc2)c2ccc(F)cc2)cc1 | 502 | 1630 | 438 | 43 | 139 | 37 | – |
| CN1[C@@H]2CC[C@H]1C[C@@H](NC(c1ccc(F)cc1)c1ccc(F)cc1)C2 | 8680 | 1810 | 7.81 | 769 | 160 | 0.7 | – |
